US20100285959A1, “HERBICIDAL MIXTURES” (priority 2006, published 2010)

Columns and labels:
wild spikenard (HPYSU) = test: Test 12 field trial, preemergence; assay type: in vivo; set-up: scale not given here; settings: Cpd 2 or Cpd 1 62 g a.i./ha, Diuron 2000 g a.i./ha
Text: (§1) In early-mid spring season, corn seeds (hybrid ‘Pioneer 3041’) were planted 5 cm deep and sugarcane nodes (variety RB-72.454) were planted 10 cm deep in separate plots in a clay soil having 2.6% organic matter and a pH of 5.6. Plots were 24 m long by 1.5 m wide with rows spaced 80 cm (corn) or 140 cm (sugarcane) apart. Corn seeds were spaced 15 cm apart and sugarcane nodes were spaced 10 cm apart within the rows. At the same time, weed seeds were broadcast over the surface of separate plots without a crop, one weed species per plot. The weed plots were rotary tilled to incorporate the weed seeds to a variety of depths. The field was managed using conventional tillage practices.

[1] = system: Ipomoea grandiflora (IPOGF); test: Test 12 field trial, preemergence; assay type: in vivo; set-up: scale not given here; settings: Cpd 2 or Cpd 1 62 g a.i./ha, Diuron 2000 g a.i./ha
Text: as §1

galium (GALAP) = test: Test 23 growth chamber, postemergence; assay type: in vivo, Galium aparine; settings: 21 DAA
Method: (§2) A test was conducted to evaluate the effects on winter barley (HORVW, Hordeum vulgare L.), winter wheat (TRZAW, Triticum aestivum L.), and several weed species of mixtures of Compound 2 with the commercial herbicides (2,4-dichlorophenoxy)acetic acid (2,4-D) and (4-chloro-2-methylphenoxy)acetic acid (MCPA), auxin mimics. […] Plants were treated postemergence at the 2-4 leaf growth stage, and each treatment was replicated three times. […] Plants were watered as needed. […] Results are means of the three replicates.

kochia (KCHSC) [2] = test: Test 21 growth chamber, postemergence; assay type: in vivo, Kochia scoparia; settings: 19 DAA
Method: (§3) A test was conducted to evaluate the effects on winter barley (HORVW, Hordeum vulgare L.), winter wheat (TRZAW, Triticum aestivum L.), and several weed species, of mixtures of Compound 2 with the commercial herbicide (2,4-dichlorophenoxy)acetic acid (2,4-D), an auxin mimic. […] Plants were treated postemergence at the 2-4 leaf growth stage, and each treatment was replicated one time. […] Plants were watered as needed. […] Results are from single replicates.

winter wheat (TRZAW) = test: Test 23 growth chamber, postemergence; assay type: in vivo, Triticum aestivum; settings: 21 DAA
Method: as §2

kochia (KCHSC) [3] = test: Test 22 growth chamber, postemergence; assay type: in vivo, Kochia scoparia; settings: 25 DAA
Method: A test was conducted to evaluate the effects on winter barley (HORVW, Hordeum vulgare L.), winter wheat (TRZAW, Triticum aestivum L.), and several weed species of mixtures of Compound 2 with the commercial herbicides (2,4-dichlorophenoxy)acetic acid (2,4-D) and (4-chloro-2-methylphenoxy)acetic acid (MCPA), auxin mimics. […] Plants were treated postemergence at the 2-4 leaf growth stage, except KCHSC, SASKR and STEME which were in the 4-8 leaf growth stage. Each treatment was replicated one time. […] Plants were watered as needed. […] Results are from single replicates.

common ragweed (AMBEL) = test: Test 2 field trial, preemergence; assay type: in vivo, Ambrosia artemisiifolia; set-up: scale not given here
Text: (§4) Corn seeds (hybrid ‘Pioneer 31G96’) were planted in mid spring season, 3.8 cm deep in a clay loam soil having 2% organic matter and a pH of 6.6. Plots were 6.1 m long by 3.0 m wide with rows spaced 76 cm apart. Seeds were spaced 15 cm apart within the rows. The field was managed using conventional tillage practices. […] A few of the weed species could not be evaluated at every timing. […] Results are the means of the three replicates.

giant ragweed (AMBTR) [4] = test: Test 9 field trial, emerged weeds before corn planting; assay type: in vivo, Ambrosia trifida; settings: g a.i./ha: Cpd 2 100, Glyphosate 1540, Paraquat 1150
Method: Corn seeds (hybrid ‘Pioneer 34M91 RR’) were planted in mid spring season, about 3.8 cm deep in a silty clay loam soil having a pH of 6.7. Plots were 9.1 m long by 3.0 m. The field was managed using no-till practices. […] Compound 2 and paraquat treatments, alone and in combination, also included a surfactant. Glyphosate, alone and with Compound 2, included ammonium sulfate in the treatment mixture. […] The effects on the weeds in the treated plots and untreated control plots were recorded 7, 14, 23, 30 and 57 days after application. Most of the weed species could not be evaluated at every timing. Corn response was only evaluated 57 days after application. […] Results are the means of the three replicates.

winter barley (HORVW) = test: Test 20 growth chamber, postemergence; assay type: in vivo, Hordeum vulgare; settings: 25 DAA
Method: A test was conducted to evaluate the effects on winter barley (HORVW, Hordeum vulgare L.) and winter wheat (TRZAW, Triticum aestivum L.) of mixtures of Compound 2 with the commercial herbicides (2,4-dichlorophenoxy)acetic acid (2,4-D) and (4-chloro-2-methylphenoxy)acetic acid (MCPA), auxin mimics. […] Plants were treated postemergence at the 2-leaf growth stage, and each treatment was replicated a total of four times (three times in the loam/sand blend and one time in RediEarth). […] Plants were watered as needed. […] Results are the means of the four replicates.

field poppy (PAPRH) = test: Test 21 growth chamber, postemergence; assay type: in vivo, Papaver rhoeas; settings: 19 DAA
Method: as §3

wild chamomile (MATCH) = test: Test 23 growth chamber, postemergence; assay type: in vivo, Matricaria chamomilla; settings: 21 DAA
Method: as §2

giant ragweed (AMBTR) [5] = test: Test 2 field trial, preemergence; assay type: in vivo, Ambrosia trifida; set-up: scale not given here
Text: as §4

[6] = 18 DAA, g a.i./ha: Cpd 2 25, Atrazine 250
[7] = 18 DAA, g a.i./ha: Cpd 2 50, Atrazine 500
[8] = 18 DAA, g a.i./ha: Cpd 2 75, Atrazine 750
[9] = 18 DAA, g a.i./ha: Cpd 2 100, Atrazine 1000
[10] = 18 DAA, g a.i./ha: Cpd 2 150, Atrazine 1500
[11] = 28 DAA, g a.i./ha: Cpd 2 25, Atrazine 250
[12] = 28 DAA, g a.i./ha: Cpd 2 50, Atrazine 500
[13] = 28 DAA, g a.i./ha: Cpd 2 75, Atrazine 750
[14] = 28 DAA, g a.i./ha: Cpd 2 100, Atrazine 1000
[15] = 28 DAA, g a.i./ha: Cpd 2 150, Atrazine 1500
[16] = 55 DAA, g a.i./ha: Cpd 2 25, Atrazine 250
[17] = 55 DAA, g a.i./ha: Cpd 2 50, Atrazine 500
[18] = 55 DAA, g a.i./ha: Cpd 2 75, Atrazine 750
[19] = 55 DAA, g a.i./ha: Cpd 2 100, Atrazine 1000
[20] = 55 DAA, g a.i./ha: Cpd 2 150, Atrazine 1500
[21] = 2,4-D or MCPA alone 250 g a.i./ha

Nc1nc(C2CC2)nc(C(=O)O)c1Cl [Compound 1, 6-amino-5-chloro-2-cyclopropyl-4-pyrimidinecarboxylic acid]
HPYSU Obs (wild spikenard (HPYSU); 15 DAA): 60
HPYSU Obs (wild spikenard (HPYSU); 29 DAA): 60
HPYSU Obs (wild spikenard (HPYSU); 48 DAA): 70
HPYSU Obs (wild spikenard (HPYSU); 61 DAA): 50
IPOGF Obs ([1]; 15 DAA): 60
IPOGF Obs ([1]; 29 DAA): 70
IPOGF Obs ([1]; 48 DAA): 60
IPOGF Obs ([1]; 61 DAA): 40

COC(=O)c1nc(C2CC2)nc(N)c1Cl [Compound 2, methyl 6-amino-5-chloro-2-cyclopropyl-4-pyrimidinecarboxylate]
Postemergence GALAP Obs (galium (GALAP); Cpd 2 alone 4 g a.i./ha): 60
Postemergence GALAP Obs (galium (GALAP); Cpd 2 alone 8 g a.i./ha): 72
Postemergence GALAP Obs (galium (GALAP); Cpd 2 alone 16 g a.i./ha): 80
Postemergence KCHSC Obs (kochia (KCHSC) [2]; Cpd 2 alone 16 g a.i./ha): 65
Postemergence TRZAW Obs (winter wheat (TRZAW); Cpd 2 alone 4 g a.i./ha): 35
Postemergence TRZAW Obs (winter wheat (TRZAW); Cpd 2 alone 8 g a.i./ha): 38
Postemergence TRZAW Obs (winter wheat (TRZAW); Cpd 2 alone 16 g a.i./ha): 43
Postemergence KCHSC Obs (kochia (KCHSC) [3]; Cpd 2 alone 4 g a.i./ha): 45
Postemergence KCHSC Obs (kochia (KCHSC) [3]; Cpd 2 alone 8 g a.i./ha): 50
Postemergence KCHSC Obs (kochia (KCHSC) [3]; Cpd 2 alone 16 g a.i./ha): 60
AMBEL Obs (common ragweed (AMBEL); [6]): 18
AMBEL Obs (common ragweed (AMBEL); [7]): 27
AMBEL Obs (common ragweed (AMBEL); [8]): 53
AMBEL Obs (common ragweed (AMBEL); [9]): 70
AMBEL Obs (common ragweed (AMBEL); [10]): 70
AMBEL Obs (common ragweed (AMBEL); [11]): 10
AMBEL Obs (common ragweed (AMBEL); [12]): 48
AMBEL Obs (common ragweed (AMBEL); [13]): 70
AMBEL Obs (common ragweed (AMBEL); [14]): 88
AMBEL Obs (common ragweed (AMBEL); [15]): 97
AMBEL Obs (common ragweed (AMBEL); [16]): 10
AMBEL Obs (common ragweed (AMBEL); [17]): 33
AMBEL Obs (common ragweed (AMBEL); [18]): 42
AMBEL Obs (common ragweed (AMBEL); [19]): 77
AMBEL Obs (common ragweed (AMBEL); [20]): 93
AMBTR Obs (giant ragweed (AMBTR) [4]; 7 DAA): 85%
AMBTR Obs (giant ragweed (AMBTR) [4]; 14 DAA): 83%
AMBTR Obs (giant ragweed (AMBTR) [4]; 57 DAA): 89%
Postemergence HORVW Obs (winter barley (HORVW); Cpd 2 alone 4 g a.i./ha): 26
Postemergence HORVW Obs (winter barley (HORVW); Cpd 2 alone 8 g a.i./ha): 33
Postemergence HORVW Obs (winter barley (HORVW); Cpd 2 alone 16 g a.i./ha): 44
Postemergence PAPRH Obs (field poppy (PAPRH); Cpd 2 alone 16 g a.i./ha): 65
Postemergence MATCH Obs (wild chamomile (MATCH); Cpd 2 alone 4 g a.i./ha): 52
Postemergence MATCH Obs (wild chamomile (MATCH); Cpd 2 alone 8 g a.i./ha): 63
Postemergence MATCH Obs (wild chamomile (MATCH); Cpd 2 alone 16 g a.i./ha): 75
AMBTR Obs (giant ragweed (AMBTR) [5]; [6]): 10
AMBTR Obs (giant ragweed (AMBTR) [5]; [7]): 30
AMBTR Obs (giant ragweed (AMBTR) [5]; [8]): 10
AMBTR Obs (giant ragweed (AMBTR) [5]; [9]): 45
AMBTR Obs (giant ragweed (AMBTR) [5]; [10]): 65
AMBTR Obs (giant ragweed (AMBTR) [5]; [11]): 35
AMBTR Obs (giant ragweed (AMBTR) [5]; [12]): 30
AMBTR Obs (giant ragweed (AMBTR) [5]; [13]): 75
AMBTR Obs (giant ragweed (AMBTR) [5]; [14]): 70
HPYSU Obs (wild spikenard (HPYSU); 15 DAA): 60
HPYSU Obs (wild spikenard (HPYSU); 29 DAA): 60
HPYSU Obs (wild spikenard (HPYSU); 48 DAA): 50
HPYSU Obs (wild spikenard (HPYSU); 61 DAA): 40
IPOGF Obs ([1]; 15 DAA): 50
IPOGF Obs ([1]; 29 DAA): 60
IPOGF Obs ([1]; 48 DAA): 40
IPOGF Obs ([1]; 61 DAA): 40

CCNc1nc(Cl)nc(NC(C)C)n1 [Atrazine, atrazine, reference compound]
AMBEL Obs (common ragweed (AMBEL); [6]): 20
AMBEL Obs (common ragweed (AMBEL); [7]): 43
AMBEL Obs (common ragweed (AMBEL); [8]): 57
AMBEL Obs (common ragweed (AMBEL); [9]): 40
AMBEL Obs (common ragweed (AMBEL); [10]): 48
AMBEL Obs (common ragweed (AMBEL); [11]): 18
AMBEL Obs (common ragweed (AMBEL); [12]): 69
AMBEL Obs (common ragweed (AMBEL); [13]): 83
AMBEL Obs (common ragweed (AMBEL); [14]): 86
AMBEL Obs (common ragweed (AMBEL); [15]): 98
AMBEL Obs (common ragweed (AMBEL); [16]): 12
AMBEL Obs (common ragweed (AMBEL); [17]): 22
AMBEL Obs (common ragweed (AMBEL); [18]): 63
AMBEL Obs (common ragweed (AMBEL); [19]): 72
AMBEL Obs (common ragweed (AMBEL); [20]): 90
AMBTR Obs (giant ragweed (AMBTR) [5]; [6]): 0
AMBTR Obs (giant ragweed (AMBTR) [5]; [7]): 30
AMBTR Obs (giant ragweed (AMBTR) [5]; [8]): 75
AMBTR Obs (giant ragweed (AMBTR) [5]; [9]): 20
AMBTR Obs (giant ragweed (AMBTR) [5]; [11]): 10
AMBTR Obs (giant ragweed (AMBTR) [5]; [12]): 5
AMBTR Obs (giant ragweed (AMBTR) [5]; [13]): 65

O=C(O)COc1ccc(Cl)cc1Cl [2,4-D, (2,4-dichlorophenoxy)acetic acid]
Postemergence GALAP Obs (galium (GALAP); [21]): 33
Postemergence KCHSC Obs (kochia (KCHSC) [2]; 2,4-D alone 125 g a.i./ha): 45
Postemergence KCHSC Obs (kochia (KCHSC) [2]; 2,4-D alone 250 g a.i./ha): 45
Postemergence TRZAW Obs (winter wheat (TRZAW); [21]): 20
Postemergence KCHSC Obs (kochia (KCHSC) [3]; [21]): 60
Postemergence HORVW Obs (winter barley (HORVW); [21]): 26
Postemergence PAPRH Obs (field poppy (PAPRH); 2,4-D alone 125 g a.i./ha): 35
Postemergence PAPRH Obs (field poppy (PAPRH); 2,4-D alone 250 g a.i./ha): 35
Postemergence MATCH Obs (wild chamomile (MATCH); [21]): 60

O=C(O)CNCP(=O)(O)O [Glyphosate]
AMBTR Obs (giant ragweed (AMBTR) [4]; 7 DAA): 25%
AMBTR Obs (giant ragweed (AMBTR) [4]; 14 DAA): 77%
AMBTR Obs (giant ragweed (AMBTR) [4]; 57 DAA): 85%
